Patent US20250129067A1 (Progentos Therapeutics, Inc., priority 2021, published 2025)
“And” between values parts separate entries of the source, which are not always exact repeats. Equal values may be shown once. Read-outs that look alike come from different tables or passages of the source.

How the values were obtained:
PDGFRα = PDGFRα (Homo sapiens (Human), UniProt P16234); assay: PDGFRα kinase enzyme assay (Promega PDGFRα Kinase Enzyme System, ADP-Glo); format: biochemical; settings: 150 uM ATP
Sequence of PDGFRα (P16234 24-1089): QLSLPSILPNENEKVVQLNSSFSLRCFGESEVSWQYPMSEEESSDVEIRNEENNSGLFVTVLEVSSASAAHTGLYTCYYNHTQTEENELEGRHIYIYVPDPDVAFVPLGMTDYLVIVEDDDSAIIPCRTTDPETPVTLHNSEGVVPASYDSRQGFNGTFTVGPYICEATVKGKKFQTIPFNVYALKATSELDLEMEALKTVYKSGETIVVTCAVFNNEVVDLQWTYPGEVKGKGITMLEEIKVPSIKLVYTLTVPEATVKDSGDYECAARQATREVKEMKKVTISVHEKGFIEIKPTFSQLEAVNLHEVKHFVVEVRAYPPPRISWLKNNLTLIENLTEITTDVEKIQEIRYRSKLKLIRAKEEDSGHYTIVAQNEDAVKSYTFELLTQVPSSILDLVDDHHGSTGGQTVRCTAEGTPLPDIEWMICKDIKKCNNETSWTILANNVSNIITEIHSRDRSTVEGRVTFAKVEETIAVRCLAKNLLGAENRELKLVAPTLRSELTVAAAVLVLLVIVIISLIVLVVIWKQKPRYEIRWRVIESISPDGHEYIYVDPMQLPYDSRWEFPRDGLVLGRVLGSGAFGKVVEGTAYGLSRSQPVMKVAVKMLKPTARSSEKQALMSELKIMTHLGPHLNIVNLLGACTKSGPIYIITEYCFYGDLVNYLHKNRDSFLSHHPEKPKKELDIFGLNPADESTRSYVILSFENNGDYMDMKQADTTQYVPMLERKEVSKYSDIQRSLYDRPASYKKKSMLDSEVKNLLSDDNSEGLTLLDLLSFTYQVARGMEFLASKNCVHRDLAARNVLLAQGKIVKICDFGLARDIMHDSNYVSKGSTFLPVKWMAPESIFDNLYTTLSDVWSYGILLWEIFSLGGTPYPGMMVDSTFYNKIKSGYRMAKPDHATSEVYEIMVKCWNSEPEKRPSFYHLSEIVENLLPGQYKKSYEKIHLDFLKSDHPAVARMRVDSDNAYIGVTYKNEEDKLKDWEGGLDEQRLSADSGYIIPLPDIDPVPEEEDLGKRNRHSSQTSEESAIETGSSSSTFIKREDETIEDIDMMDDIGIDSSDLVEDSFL
Method in brief: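 Read-out was ADP-Glo: remaining ATP depleted, ADP converted to luminescence and compared with a standard curve.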

[1] = tested on: GPR17+ cells (newly differentiated oligodendrocytes); assay: In vivo OPC differentiation, GPR17+ cells in brain; settings: for fold induction at 3 mg/kg / fold induction at 30 mg/kg / fold induction at 10 mg/kg / fold induction at 3.3 mg/kg: Mus musculus, po, 24 h, read-out: GPR17 Fold Induction (Over Vehicle)
[2] = tested on: Oligodendrocyte progenitor cells (OPCs); assay: In vitro OPC differentiation assay, MBP expression (immunocytochemistry); settings: 72 hours of treatment; fold change over vehicle
[3] = tested on: Oligodendrocyte progenitor cells (OPCs); assay: In vitro OPC differentiation assay, GPR17 expression (immunocytochemistry); settings: 72 hours, fold change over vehicle; for GPR17 Fold Induction (Over Vehicle; 3 μM): 3 μM (10× concentration, final 0.3 μM); for GPR17 Fold Induction (Over Vehicle; 5 μM): 5 μM (10× concentration, final 0.5 μM)
[4] = 11-point dose response, 10,000 nM to 0.169 nM, BLQ = below limit of quantitation, read-out: IC50 Values on PDGFRα Kinase Inhibition, IC50
[5] = 20 ng purified PDGFRα, Poly (Glu4Tyr1) substrate, two hours, 11-point dose response, read-out: IC50 Values on PDGFRα Kinase Inhibition

Row | Compound | IC50 (PDGFRα; [4]) [nM] | fold induction at 3 mg/kg [1] | fold induction at 30 mg/kg [1] | GPR17 Fold Induction (Over Vehicle) ([1]; dose not assignable from Table 10, GPR17+ cells in brain, mice) [fold] | MBP Fold Induction (Over vehicle) [2] | GPR17 Fold Induction (Over Vehicle; 3 μM) [3] | fold induction at 10 mg/kg [1] | IC50 (PDGFRα; [5]) [nM] | fold induction at 3.3 mg/kg [1] | GPR17 Fold Induction (Over Vehicle; 5 μM) [3] | IC50 Values on PDGFRα Kinase Inhibition, IC50 (nM) (PDGFRα; 11-point dose response, 10,000 nM to 0.169 nM, BLQ = below limit of quantitation)
1 | Cc1cccc(Cc2cnc(N3CCN(c4cnn5cc(-c6cnn(C)c6)ccc45)CC3)nc2)c1 [Compound 53, 3-{4-[5-(3-methylbenzyl)pyrimidin-2-yl]piperazin-1-yl}-6-(1-methyl-1H-pyrazol-4-yl)pyrazolo[1,5-a]pyridine] | 249 | 1.22 | 4.64 | 1.41 | 1.41 | 5.60 |  |  |  |  | 
2 | Cn1cc(-c2ccc3c(N4CCN(c5ncc(C(O)C6CCCCC6)cn5)CC4)cnn3c2)cn1 (stereo not shown) [Compound 61, cyclohexyl(2-{4-[6-(1-methyl-1H-pyrazol-4-yl)pyrazolo[1,5-a]pyridin-3-yl]piperazin-1-yl}pyrimidin-5-yl)methanol] | 5.26 | 2.36 |  |  | 9.88 | 10.09 |  |  |  |  | 
3 | Cn1cc(-c2ccc3c(N4CCN(c5ncc(Cc6ccncc6)cn5)CC4)cnn3c2)cn1 [Compound 179, 6-(1-methyl-1H-pyrazol-4-yl)-3-(4-(5-(pyridin-4-ylmethyl)pyrimidin-2-yl)piperazin-1-yl)pyrazolo[1,5-a]pyridine] | 662 |  |  |  | 10.12 | 5.37 | 8.36 |  |  |  | 
4 | Cn1cc(-c2ccc3c(N4CCN(C(=O)OCc5ccccc5)CC4)cnn3c2)cn1 [Compound 13, Benzyl 4-[6-(1-methyl-1H-pyrazol-4-yl)pyrazolo[1,5-a]pyridin-3-yl]piperazine-1-carboxylate] | 421 |  |  |  | 10.24 | 8.42 |  | < 1000 | 1.85 | 4.31 | 
5 | Cn1cc(-c2ccc3c(N4CCN(C(=O)OC(C)(C)C)CC4)cnn3c2)cn1 [Compound 11, tert-butyl 4-[6-(1-methyl-1H-pyrazol-4-yl)pyrazolo[1,5-a]pyridin-3-yl]piperazine-1-carboxylate] | 326 |  |  |  | 1.93 | 10.21 | 9.93 | < 1000 | 2.14 | 4.22 | 
6 | CC(C)n1cc(-c2ccc3c(N4CCN(C(=O)OC(C)(C)C)CC4)cnn3c2)cn1 [Compound 234, tert-butyl 4-(6-(1-isopropyl-1H-pyrazol-4-yl)pyrazolo[1,5-a]pyridin-3-yl)piperazine-1-carboxylate] | 311 | 1.15 |  |  | 11.56 | 7.16 |  |  |  |  | 
7 | Cn1cc(-c2ccc3c(N4CCN(c5ncc(C(C)(N)c6ccc(F)cc6)cn5)CC4)cnn3c2)cn1 (stereo not shown) [Compound 35, 1-(4-fluorophenyl)-1-(2-{4-[6-(1-methyl-1H-pyrazol-4-yl)pyrazolo[1,5-a]pyridin-3-yl]piperazin-1-yl}pyrimidin-5-yl)ethanamine] | 2090 |  |  |  | 1.69 | 7.17 |  |  | 5.01 | 3.57 | 
8 | CC(C)(C)OC(=O)N1CCN(c2cnn3cc(-c4cnn(CCCN5CCOCC5)c4)ccc23)CC1 [Compound 233, tert-butyl 4-(6-(1-(3-morpholinopropyl)-1H-pyrazol-4-yl)pyrazolo[1,5-a]pyridin-3-yl)piperazine-1-carboxylate] | 692 |  |  |  | 46.15 | 9.27 | 2.16 |  |  |  | 
9 | COc1cccc(Cc2cnc(N3CCN(c4cnn5cc(-c6cnn(C)c6)ccc45)CC3)nc2)c1 [Compound 54, 3-{4-[5-(3-methoxybenzyl)pyrimidin-2-yl]piperazin-1-yl}-6-(1-methyl-1H-pyrazol-4-yl)pyrazolo[1,5-a]pyridine] | 630 | 1.24 | 3.48 |  | 2.14 | 6.81 |  |  |  |  | 
10 | Cn1cc(-c2cnc3c(N4CCN(c5ncc(Cc6ccccc6)cn5)CC4)cnn3c2)cn1 [Compound 7, 3-[4-(5-benzylpyrimidin-2-yl)piperazin-1-yl]-6-(1-methyl-1H-pyrazol-4-yl)pyrazolo[1,5-a]pyrimidine] | 2420 |  |  |  | 2.1 | 7.38 | 12.9 |  |  | 4.40 and 4.45 | 
11 | Cn1cc(-c2ccc3c(N4CCN(c5nc(Cc6ccccc6)co5)CC4)cnn3c2)cn1 [Compound 58, 3-[4-(4-benzyl-1,3-oxazol-2-yl)piperazin-1-yl]-6-(1-methyl-1H-pyrazol-4-yl)pyrazolo[1,5-a]pyridine] | 300 | 5.5 |  |  | 3.72 | 7.31 |  |  |  |  | 
12 | CC(c1ccc(F)cc1)c1cnc(N2CCN(c3cnn4cc(-c5cnn(C)c5)ccc34)CC2)nc1 (stereo not shown) [Compound 258, 3-(4-(5-(1-(4-fluorophenyl)ethyl)pyrimidin-2-yl)piperazin-1-yl)-6-(1-methyl-1H-pyrazol-4-yl)pyrazolo[1,5-a]pyridine] | 803 | 2.82 |  |  | 16.36 | 9.21 |  |  |  |  | 
13 | Cn1cc(-c2ccc3c(N4CCN(C(=O)O[C@@H](c5ccccc5)C(F)(F)F)CC4)cnn3c2)cn1 [Compound 64, (1S)-2,2,2-trifluoro-1-phenylethyl 4-[6-(1-methyl-1H-pyrazol-4-yl)pyrazolo[1,5-a]pyridin-3-yl]piperazine-1-carboxylate] | 38.4 | 2.13 |  |  | 7.73 | 6.09 |  |  |  |  | 
14 | C[C@@H](OC(=O)N1CCN(c2cnn3cc(-c4cnn(C)c4)ccc23)CC1)c1ccc(C(F)(F)F)cc1 [Compound 313, (1R)-1-[4-(trifluoromethyl)phenyl]ethyl 4-[6-(1-methyl-1H-pyrazol-4-yl)pyrazolo[1,5-a]pyridin-3-yl]piperazine-1-carboxylate] |  | 10.5 |  |  | 116.12 | 10.56 |  |  |  |  | BLQ
15 | Cn1cc(-c2ccc3c(N4CCN(C(=O)CCc5ccccc5)CC4)cnn3c2)cn1 [Compound 1, 6-(1-methyl-1H-pyrazol-4-yl)-3-[4-(3-phenylpropanoyl)piperazin-1-yl]pyrazolo[1,5-a]pyridine] | 4010 |  |  |  | 9.82 | 5.25 |  |  | 1.06 | 2.94 | 
16 | Cn1cc(-c2ccc3c(N4CCN(c5ncc(Cc6cccs6)cn5)CC4)cnn3c2)cn1 [Compound 178, 6-(1-methyl-1H-pyrazol-4-yl)-3-(4-(5-(thiophen-2-ylmethyl)pyrimidin-2-yl)piperazin-1-yl)pyrazolo[1,5-a]pyridine] | 2070 |  | 0.96 |  | 7.25 | 5.98 |  |  |  |  | 
17 | Cn1cc(-c2ccc3c(N4CCN(C(=O)Cc5ccccc5)CC4)cnn3c2)cn1 [Compound 18, 6-(1-methyl-1H-pyrazol-4-yl)-3-[4-(phenylacetyl)piperazin-1-yl]pyrazolo[1,5-a]pyridine] | 1650 |  |  |  | 1.77 | 4.40 |  |  |  | 3.50 | 
